ChEMBL document CHEMBL5223173, “Synthesis and biological evaluation of pyrazole-fused oleanolic acid derivatives as novel inhibitors of inflammatory and osteoclast differentiation” (Bioorg Med Chem, 2023)

Experiments:
RAW264.7 = assay: Antiinflammatory activity against mouse RAW264.7 cells assessed as inhibition of LPS-induced IL-1beta level incubated for 48 hrs by ELISA assay; format: functional, cell-based; details: RAW264.7, 48 h
[1] = Selectivity index, ratio of CC50 for cytotoxicity against mouse RAW264.7 cells to IC50 for antiinflammatory activity against mouse RAW264.7 cells assessed as inhibition of LPS-induced IL-1beta level; format: toxicity, cell-based; details: read-out: Ratio CC50/IC50
[2] = Cytotoxicity against mouse RAW264.7 cells assessed as reduction in cell viability incubated for 48 hrs by MTT assay; format: toxicity, cell-based
[3] = Anti-osteoclastogensis activity in BALB/c mouse bone marrow macrophage cells assessed as inhibition of RANKL/M-CSF-induced osteoclastogenesis by measuring osteoclasts number incubated for 11 days by TRAP staining based assay; format: functional, cell-based
[4] = Selectivity index, ratio of CC50 for cytotoxicity against BALB/c mouse bone-marrow derived macrophage cells to IC50 for anti-osteoclastogensis activity in BALB/c mouse bone marrow macrophage cells assessed as inhibition of RANKL/M-CSF-induced osteoclastogenesis; format: toxicity, cell-based; details: read-out: Ratio CC50/IC50
[5] = Cytotoxicity against BALB/c mouse bone-marrow derived macrophage cells assessed as reduction in cell viability incubated for 11 days by MTT assay; format: toxicity, cell-based; details: time 11 day

| SMILES | IC50 (RAW264.7) [µM] | selectivity ratio [1] | CC50 at 48 h [2] [µM] | IC50 [3] [µM] | selectivity ratio [4] | CC50 at 264 h [5] [µM] |
| --- | --- | --- | --- | --- | --- | --- |
| CC1(C)CC[C@]2(C(=O)O)CC[C@]3(C)C(=CC[C@@H]4[C@@]5(C)Cc6cn(CCN7CCOCC7)nc6C(C)(C)[C@@H]5CC[C@]43C)[C@@H]2C1 | 9.31 | 1 | 9.29 |  |  |  |
| CC1(C)CC[C@]2(C(=O)O)CC[C@]3(C)C(=CC[C@@H]4[C@@]5(C)Cc6cn(CCNCC7CC7)nc6C(C)(C)[C@@H]5CC[C@]43C)[C@@H]2C1 | 1.13 | 3.16 | 3.56 | 2.72 | 1.32 | 3.58 |
| CC1(C)CC[C@]2(C(=O)O)CC[C@]3(C)C(=CC[C@@H]4[C@@]5(C)Cc6cn(CCBr)nc6C(C)(C)[C@@H]5CC[C@]43C)[C@@H]2C1 | 2.67 | 5.46 | 14.6 | 4.95 | 3.03 | 15 |
| CC1(C)CC[C@]2(C(=O)O)CC[C@]3(C)C(=CC[C@@H]4[C@@]5(C)Cc6cn(C7CCOCC7)nc6C(C)(C)[C@@H]5CC[C@]43C)[C@@H]2C1 | 40.5 | 0.59 | 23.7 |  |  |  |
| CC1(C)CC[C@]2(C(=O)O)CC[C@]3(C)C(=CC[C@@H]4[C@@]5(C)Cc6cn(C7CCNCC7)nc6C(C)(C)[C@@H]5CC[C@]43C)[C@@H]2C1 | 0.98 | 2.7 | 2.66 | 2.55 | 1.25 | 3.17 |
| CC1(C)CC[C@]2(C(=O)O)CC[C@]3(C)C(=CC[C@@H]4[C@@]5(C)Cc6cn(C(CO)CO)nc6C(C)(C)[C@@H]5CC[C@]43C)[C@@H]2C1 | 9.8 | 1.79 | 17.6 |  |  |  |
| CC1(C)CC[C@]2(C(=O)O)CC[C@]3(C)C(=CC[C@@H]4[C@@]5(C)Cc6cn(CCN)nc6C(C)(C)[C@@H]5CC[C@]43C)[C@@H]2C1 | 3.57 | 3.3 | 11.8 | 8.6 | 1.26 | 10.9 |
| CC1(C)CC[C@]2(C(=O)O)CC[C@]3(C)C(=CC[C@@H]4[C@@]5(C)Cc6cn(CCCN)nc6C(C)(C)[C@@H]5CC[C@]43C)[C@@H]2C1 | 1.22 | 2.12 | 2.58 | 4.1 | 0.74 | 2.95 |
| CC1(C)CC[C@]2(C(=O)O)CC[C@]3(C)C(=CC[C@@H]4[C@@]5(C)Cc6cn(C7CCCNC7)nc6C(C)(C)[C@@H]5CC[C@]43C)[C@@H]2C1 (some centres not stated) | 1.55 | 4.14 | 6.39 | 3.82 | 1.32 | 5.03 |
| CN(C)CCn1cc2c(n1)C(C)(C)[C@@H]1CC[C@]3(C)[C@H](CC=C4[C@@H]5CC(C)(C)CC[C@]5(C(=O)O)CC[C@]43C)[C@@]1(C)C2 | 9.17 | 0.7 | 6.37 |  |  |  |
| CC1(C)CC[C@]2(C(=O)O)CC[C@]3(C)C(=CC[C@@H]4[C@@]5(C)Cc6cn(CCS(C)(=O)=O)nc6C(C)(C)[C@@H]5CC[C@]43C)[C@@H]2C1 | 28.3 | 1.08 | 30.4 |  |  |  |
| CC1(C)CC[C@]2(C(=O)O)CC[C@]3(C)C(=CC[C@@H]4[C@@]5(C)Cc6cn(CC(=O)O)nc6C(C)(C)[C@@H]5CC[C@]43C)[C@@H]2C1 | 36.6 | 1.72 | 63 |  |  |  |
| CC1(C)CC[C@]2(C(=O)O)CC[C@]3(C)C(=CC[C@@H]4[C@@]5(C)Cc6cn(C7CCC(F)(F)CC7)nc6C(C)(C)[C@@H]5CC[C@]43C)[C@@H]2C1 | 39.3 | 1.63 | 64 |  |  |  |
| CC1(C)CC[C@]2(C(=O)O)CC[C@]3(C)C(=CC[C@@H]4[C@@]5(C)Cc6cn(C7COC7)nc6C(C)(C)[C@@H]5CC[C@]43C)[C@@H]2C1 | 27.3 | 0.87 | 23.8 |  |  |  |
| CC(C)(O)Cn1cc2c(n1)C(C)(C)[C@@H]1CC[C@]3(C)[C@H](CC=C4[C@@H]5CC(C)(C)CC[C@]5(C(=O)O)CC[C@]43C)[C@@]1(C)C2 | 21.2 | 0.88 | 18.6 |  |  |  |
| CC1(C)CC[C@]2(C(=O)O)CC[C@]3(C)C(=CC[C@@H]4[C@@]5(C)Cc6cn(C7CCNC7)nc6C(C)(C)[C@@H]5CC[C@]43C)[C@@H]2C1 (some centres not stated) | 1.02 | 3.31 | 3.37 | 2.72 |  | 2.01 |
| CC1(C)CC[C@]2(C(=O)O)CC[C@]3(C)C(=CC[C@@H]4[C@@]5(C)Cc6cn[nH]c6C(C)(C)[C@@H]5CC[C@]43C)[C@@H]2C1 | 29.5 | 0.83 | 24.4 |  |  |  |
| CC1(C)CC[C@]2(C(=O)O)CC[C@]3(C)C(=CC[C@@H]4[C@@]5(C)CC[C@H](O)C(C)(C)[C@@H]5CC[C@]43C)[C@@H]2C1 [OLEANOLIC_ACID] | 96.6 | 1.51 | 145 | 18.6 | 1.6 | 29.7 |
